Laboratory results: patent US7220720B2, “Melanin-concentrating hormone analogs” (Merk & Co., Inc., priority 2000, dated 2007)
Like-named read-outs stand apart in the source and are kept apart here. Where a SMILES comes first, the peptide text is derived from it. Bridges are numbered along the chain shown (N, C = ends).

Legend:
human MCH receptor [1] = molecular target: T1, human MCH receptor (Homo sapiens, UniProt Q99705); assay: Aequorin bioluminescence functional assay in 293-AEQ17 cells transfected with human MCH receptor; format: cell-based; set-up: expressed in transfected cells; host or cells: 293-AEQ17 (aequorin-expressing HEK-293 reporter line), transient lipofectamine transfection, pcDNA-3 vector; Activity Activation %: concentration or dose not given beside the values; conditions: for % Activation at 10 μM: Table 1, aequorin functional assay
Experimental: The aequorin bioluminescence assay is a reliable test for measuring the activity of G protein-coupled receptors that couple through the Gα protein subunit family consisting of Gq and Gll and leads to the activation of phospholipase C, mobilization of intracellular calcium and activation of protein kinase C.
Following approximately 40 hours of expression the apo-aequorin in the cells was charged for 4 hours with coelenterazine (10 μM) under reducing conditions (300 μM reduced glutathione) in ECB buffer (140 mM NaCl, 20 mM KCl, 20 mM HEPES-NaOH [pH=7.4], 5 mM glucose, 1 mM MgCl2, 1 mM CaCl2, 0.1 mg/ml bovine serum albumin).
The cells were harvested, washed once in ECB medium and resuspended to 500,000 cells/ml. 100 μl of cell suspension (corresponding to 5×10^4 cells) was then injected into the test plate containing MCH or MCH analogs, and the integrated light emission was recorded over 30 seconds, in 0.5 second units. 20 μL of lysis buffer (0.1% final Triton X-100 concentration) was then injected and the integrated light emission recorded over 10 seconds, in 0.5 second units. The “fractional response” values for each well were calculated by taking the ratio of the integrated response to the initial challenge to the total integrated luminescence including the Triton X-100 lysis response.

human MCH receptor [2] = molecular target: T1, human MCH receptor; assay: Radiolabeled MCH-R binding assay: inhibition of [125I]-human MCH (Phe13, Tyr19 substituted) binding to cell membranes (filter or SPA format); set-up: expressed in transfected cells
Experimental: Cell membranes were prepared on ice. Each T-75 flask was rinsed twice with 10 ml of Enzyme-free Cell Dissociation Buffer (Specialty Media, Lavallette, N.J.), and the cell monolayer was detached in an additional 10 ml of Enzyme-free Cell Dissociation Buffer by incubation at room temperature for 10 minutes. Dissociated cells were centrifuged (500×g for 10 minutes at 4° C.), resuspended in 5 ml homogenization buffer (10 mM Tris-HCl, pH 7.4, 0.01 mM Pefabloc, 10 μM phosphoramidon, 40 μg/ml bacitracin) and then homogenized using a glass homogenizer (10–15 strokes). The homogenate was centrifuged for 10 minutes (1,000×g at 4° C.). The resulting supernatant was then centrifuged at 38,700×g for 15 minutes at 4° C. Pelleted membranes were resuspended (passed through 25 gauge needle 5 times), snap-frozen on liquid nitrogen, and stored at −80° C. until use.
Binding was performed in a 96-well filter assay or Scintillation Proximity Assay (SPA)-based format using cell membranes from a stable CHO or HEK-293 cell line expressing the MCH receptor. For the filter assay, reactions were performed at 20° C. for 1 hour in a total volume of 0.2 ml containing: 0.05 ml of membrane suspension (˜3 μg protein), 0.02 ml of [^125I]-human MCH (Phe^13, Tyr^19 substituted; 30 pM), 0.01 ml of competitor and 0.12 ml of binding buffer (50 mM Tris-HCl, pH 7.4, 10 mM MgCl2, 2 mM EDTA, 200 μg/ml bacitracin, 1 μM phosphoramidon).
Bound radioligand was separated by rapid vacuum filtration (Packard Filtermate 96-well cell harvester) through GF/C filters pretreated for 1 hour with 1% polyethylenimine. After application of the membrane suspension to the filter, the filters were washed 3 times with 3 ml each of ice-cold 50 mM Tris-HCl, pH 7.4, 10 mM MgCl2, 2 mM EDTA, 0.04% Tween 20 and the bound radioactivity on the filters was quantitated by scintillation counting (TopCount device).
For the SPA-based assay, WGA-PVT beads (NEN Life Sciences Products) were resuspended in Dulbecco's PBS with calcium and magnesium (500 mg beads in 4 ml PBS). For each 96-well assay plate, 0.18 ml of beads was pre-coated with MCH receptor by mixing with 0.2 ml MCH receptor CHO cell membranes (˜0.2–4 mg protein) and 1.5 ml SPA assay buffer (50 mM Tris-HCl, pH 7.4, 10 mM MgCl2, 2 mM EDTA, 0.1% BSA, 12% glycerol). The suspension was mixed gently for 20 minutes, 12.3 ml of assay buffer and protease inhibitors were added (final concentration given): 2 μg/ml leupeptin, 10 μM phosphoramidon, 40 μg/ml bacitracin, 5 μg/ml aprotinin, 0.1 mM Pefabloc.
Coated beads were kept on ice until use. For each well, 0.145 ml of beads were added to Optiplate assay plates (Packard 6005190), followed by 0.002–0.004 ml of competitor and 0.05 ml of [^125I]-human MCH (Phe^13, Tyr^19 substituted; 30 pM). Binding reactions were allowed to proceed at room temperature for 3 hours. Quantitation was performed by scintillation counting (TopCount device).

[3] = Table 5, position 10 modification
[4] = Table 5, position 10 modification, read-out: Activity IC50
[5] = Table 1, SPA based assay, read-out: Binding Assay IC50
[6] = Table 3, N-methyl-amino acid analogs
[7] = Table 6, position 13 modification
[8] = Table 7, combinations and position 8

T1 sequence (Q99705 whole entry): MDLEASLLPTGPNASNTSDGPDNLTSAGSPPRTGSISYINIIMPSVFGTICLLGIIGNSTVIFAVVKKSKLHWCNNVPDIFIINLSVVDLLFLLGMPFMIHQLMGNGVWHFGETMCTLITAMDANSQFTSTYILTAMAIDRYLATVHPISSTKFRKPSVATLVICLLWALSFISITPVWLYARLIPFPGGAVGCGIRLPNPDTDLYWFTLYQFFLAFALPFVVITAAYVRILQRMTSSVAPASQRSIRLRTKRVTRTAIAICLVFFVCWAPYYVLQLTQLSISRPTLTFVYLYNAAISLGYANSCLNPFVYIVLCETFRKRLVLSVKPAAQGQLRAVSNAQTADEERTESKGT

SMILES: CSCC[C@@H]1NC(=O)[C@@H](NC(=O)[C@H](CCCNC(=N)N)NC(C)=O)CSSC[C@@H](C(N)=O)NC(=O)[C@@H]2CCCN2C(=O)[C@H](CCCNC(=N)N)NC(=O)[C@H](Cc2ccc(O)cc2)NC(=O)[C@H](C(C)C)NC(=O)[C@H](CCCNC(=N)N)NC(=O)[C@H](CCC(=O)O)NC(=O)[C@H](CC(C)C)NC1=O [compound 54]
- Activity Activation % (human MCH receptor [1]; [3]): 12%
- IC50 (human MCH receptor [2]; [4]): 0.19 µM

SMILES: CSCC[C@@H]1NC(=O)[C@@H](NC(C)=O)CSSC[C@@H](C(N)=O)NC(=O)[C@@H]2CCCN2C(=O)[C@H](CCCNC(=N)N)NC(=O)[C@H](Cc2ccc(O)cc2)NC(=O)[C@H](C(C)C)NC(=O)[C@H](CCCNC(=N)N)NC(=O)CNC(=O)[C@H](CC(C)C)NC1=O [compound 9]
- % Activation at 10 μM (human MCH receptor [1]): 74%
- IC50 (human MCH receptor [2]; [5]): 0.0016 µM

SMILES: CSCC[C@@H]1NC(=O)[C@@H](NC(=O)[C@H](CCCNC(=N)N)NC(=O)[C@H](CC(C)C)NC(=O)[C@H](CCSC)NC(=O)[C@H](CC(=O)O)NC(=O)[C@H](Cc2ccccc2)NC(=O)[C@@H](N)CC(=O)O)CSSC[C@@H](C(N)=O)NC(=O)[C@@H]2CCCN2C(=O)[C@H](CCCNC(=N)N)NC(=O)[C@H](Cc2ccc(O)cc2)NC(=O)[C@H](C(C)C)NC(=O)[C@H](CCCNC(=N)N)NC(=O)CNC(=O)[C@H](CC(C)C)NC1=O [compound 10] (H-DFDMLRCMLGRVYRPC-NH2; disulfide 7-16)
- % Activation at 10 μM (human MCH receptor [1]): 99%
- IC50 (human MCH receptor [2]; [5]): 0.0003 µM

SMILES: CSCC[C@@H]1NC(=O)[C@@H](NC(=O)[C@H](CCCNC(=N)N)NC(C)=O)CSSC[C@@H](C(N)=O)NC(=O)[C@@H]2CCCN2C(=O)[C@H](CCCNC(=N)N)NC(=O)[C@H](Cc2ccc(O)cc2)NC(=O)[C@H](C(C)C)NC(=O)[C@H](CCCNC(=N)N)NC(=O)CNC(=O)[C@H](CC(C)C)NC1=O [compound 7]
- % Activation at 10 μM (human MCH receptor [1]): 123%
- Activity Activation % (human MCH receptor [1]; Table 2, D-amino acid analogs): 99%
- EC50 (human MCH receptor [1]; Table 2, D-amino acid analogs): 0.02 µM
- Activity Activation % (human MCH receptor [1]; [6]): 99%
- EC50 (human MCH receptor [1]; [6]): 0.02 µM
- Activity Activation % (human MCH receptor [1]; Table 4, position 6 modification): 99%
- Activity Activation % (human MCH receptor [1]; [3]): 99%
- EC50 (human MCH receptor [1]; [3]): 0.02 µM
- Activity Activation % (human MCH receptor [1]; [7]): 99%
- EC50 (human MCH receptor [1]; [7]): 0.02 µM
- Activity Activation % (human MCH receptor [1]; [8]): 99%
- EC50 (human MCH receptor [1]; [8]): 0.02 µM
- IC50 (human MCH receptor [2]; Table 2, D-amino acid analogs, read-out: Activity IC50): 0.0005 µM
- IC50 (human MCH receptor [2]; Table 3, N-methyl-amino acid analogs, read-out: Activity IC50): 0.0014 µM
- IC50 (human MCH receptor [2]; [4]): 0.0005 µM

SMILES: CSCC[C@@H]1NC(=O)[C@@H](NC(=O)[C@H](CCCNC(=N)N)NC(C)=O)CSSC[C@@H](C(N)=O)NC(=O)[C@@H]2CCCN2C(=O)[C@H](CCCNC(=N)N)NC(=O)[C@H](Cc2ccc(O)cc2)NC(=O)[C@H](C(C)C)NC(=O)[C@H](CCCNC(=N)N)NC(=O)[C@@H]2CCCN2C(=O)[C@H](CC(C)C)NC1=O [compound 50]
- Activity Activation % (human MCH receptor [1]; [3]): 4%
- IC50 (human MCH receptor [2]; [4]): 0.7 µM

SMILES: CSCC[C@@H]1NC(=O)[C@@H](NC(=O)[C@H](CCCNC(=N)N)NC(C)=O)CSSC[C@@H](C(N)=O)NC(=O)[C@@H]2CCCN2C(=O)[C@H](CCCNC(=N)N)NC(=O)[C@H](Cc2ccc(O)cc2)NC(=O)[C@H](C(C)C)NC(=O)[C@H](CCCNC(=N)N)NC(=O)[C@H](CCCCN)NC(=O)[C@H](CC(C)C)NC1=O [compound 53]
- Activity Activation % (human MCH receptor [1]; [3]): 25%
- IC50 (human MCH receptor [2]; [4]): 0.11 µM
